Assay results published in ChEMBL document CHEMBL1201862, “PubChem BioAssay data set” (2004).
Activity calls are given as the source filed them.

How the values were obtained:
[1] = biological target: DNA dC->dU-editing enzyme APOBEC-3A (Homo sapiens, UniProt P31941); test: SAR analysis of small molecule inhibitors of APOBEC3A DNA Deaminase via a fluorescence-based single-stranded DNA deaminase assay.; format: functional; settings: read-out: IC50_Mean
Cytochrome P450 2C19 = Cytochrome P450 2C19 (Homo sapiens, UniProt P33261); test: Cytochrome panel assay with activity outcomes. Panel member name: p450-cyp2c19 Compounds with AC50 equal or less than 10 uM are considered active; format: functional; settings: read-out: AC50
[2] = biological target: DNA dC->dU-editing enzyme APOBEC-3G (Homo sapiens, UniProt Q9HC16); test: inhibition of APOBEC3G ssDNA deamination – biochemical, fluorescence, single-stranded DNA substrate, SAR follow-up (AID 602136); format: functional; settings: read-out: IC50_Mean
Cytochrome P450 2D6 = Cytochrome P450 2D6 (Homo sapiens, UniProt P10635);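 note: CYP2D6 member of a cytochrome P450 panel assay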
Cytochrome P450 2C9 = Cytochrome P450 2C9 (Homo sapiens, UniProt P11712)
Insulin-degrading enzyme [3] = biological target: T1, Insulin-degrading enzyme (Homo sapiens, UniProt P14735); test: cellular IDE activation of Abeta substrate cleavage – fluorescence polarization, HEK cells, dose response (AID 588439); format: functional, cell-based
T1 sequence (P14735 whole entry): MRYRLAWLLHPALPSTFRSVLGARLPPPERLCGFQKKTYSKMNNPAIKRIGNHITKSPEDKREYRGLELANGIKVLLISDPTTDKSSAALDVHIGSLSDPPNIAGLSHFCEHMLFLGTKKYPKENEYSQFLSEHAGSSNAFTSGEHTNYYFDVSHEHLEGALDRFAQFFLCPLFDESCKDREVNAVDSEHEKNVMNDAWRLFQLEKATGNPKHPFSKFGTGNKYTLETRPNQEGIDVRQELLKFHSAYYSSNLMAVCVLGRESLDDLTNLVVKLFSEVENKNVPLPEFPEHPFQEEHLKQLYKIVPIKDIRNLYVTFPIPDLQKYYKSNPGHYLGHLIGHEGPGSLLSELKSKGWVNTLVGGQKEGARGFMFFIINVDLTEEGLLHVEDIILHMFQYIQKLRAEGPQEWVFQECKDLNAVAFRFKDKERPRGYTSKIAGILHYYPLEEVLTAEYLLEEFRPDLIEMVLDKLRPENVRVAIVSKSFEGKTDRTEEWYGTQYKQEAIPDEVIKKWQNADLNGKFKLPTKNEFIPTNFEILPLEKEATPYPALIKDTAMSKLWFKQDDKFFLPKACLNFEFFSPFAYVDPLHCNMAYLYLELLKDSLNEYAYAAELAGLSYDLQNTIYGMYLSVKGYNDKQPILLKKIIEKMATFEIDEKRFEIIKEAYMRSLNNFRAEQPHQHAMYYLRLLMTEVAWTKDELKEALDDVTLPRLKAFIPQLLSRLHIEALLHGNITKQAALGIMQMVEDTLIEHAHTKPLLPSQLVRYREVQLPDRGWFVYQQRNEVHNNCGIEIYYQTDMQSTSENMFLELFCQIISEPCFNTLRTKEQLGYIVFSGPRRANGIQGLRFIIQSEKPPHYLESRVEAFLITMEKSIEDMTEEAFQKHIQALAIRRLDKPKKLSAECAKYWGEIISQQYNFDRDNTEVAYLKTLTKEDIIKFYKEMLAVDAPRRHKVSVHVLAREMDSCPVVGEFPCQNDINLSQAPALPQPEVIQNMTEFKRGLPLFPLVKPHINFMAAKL

Insulin-degrading enzyme [4] = biological target: T1, Insulin-degrading enzyme; test: recombinant IDE activation, cell-free – biochemical, fluorescence polarization, counter-screen for IDE activator project, dose response (AID 588681)
HEK293 [5] = test: optical interference in Abeta FP readout, dose response, artefact control for IDE activator project, biochemical, fluorescence polarization (AID 588442); format: functional, cell-based; settings: Homo sapiens
HEK293 [6] = test: membrane integrity loss in HEK cells – cell-based, fluorescence, cytotoxicity control for IDE activator project, dose response (AID 588440); format: functional; settings: Homo sapiens;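 note: cytotoxicity by LDH release measuring loss of membrane integrity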
[7] = biological target: T2, Sentrin-specific protease 7 (Homo sapiens, UniProt Q9BQF6); test: inhibition of human SENP7 cleavage activity – biochemical, luminescence, set 2, SAR follow-up (AID 588600); format: functional
T2 sequence (Q9BQF6 whole entry): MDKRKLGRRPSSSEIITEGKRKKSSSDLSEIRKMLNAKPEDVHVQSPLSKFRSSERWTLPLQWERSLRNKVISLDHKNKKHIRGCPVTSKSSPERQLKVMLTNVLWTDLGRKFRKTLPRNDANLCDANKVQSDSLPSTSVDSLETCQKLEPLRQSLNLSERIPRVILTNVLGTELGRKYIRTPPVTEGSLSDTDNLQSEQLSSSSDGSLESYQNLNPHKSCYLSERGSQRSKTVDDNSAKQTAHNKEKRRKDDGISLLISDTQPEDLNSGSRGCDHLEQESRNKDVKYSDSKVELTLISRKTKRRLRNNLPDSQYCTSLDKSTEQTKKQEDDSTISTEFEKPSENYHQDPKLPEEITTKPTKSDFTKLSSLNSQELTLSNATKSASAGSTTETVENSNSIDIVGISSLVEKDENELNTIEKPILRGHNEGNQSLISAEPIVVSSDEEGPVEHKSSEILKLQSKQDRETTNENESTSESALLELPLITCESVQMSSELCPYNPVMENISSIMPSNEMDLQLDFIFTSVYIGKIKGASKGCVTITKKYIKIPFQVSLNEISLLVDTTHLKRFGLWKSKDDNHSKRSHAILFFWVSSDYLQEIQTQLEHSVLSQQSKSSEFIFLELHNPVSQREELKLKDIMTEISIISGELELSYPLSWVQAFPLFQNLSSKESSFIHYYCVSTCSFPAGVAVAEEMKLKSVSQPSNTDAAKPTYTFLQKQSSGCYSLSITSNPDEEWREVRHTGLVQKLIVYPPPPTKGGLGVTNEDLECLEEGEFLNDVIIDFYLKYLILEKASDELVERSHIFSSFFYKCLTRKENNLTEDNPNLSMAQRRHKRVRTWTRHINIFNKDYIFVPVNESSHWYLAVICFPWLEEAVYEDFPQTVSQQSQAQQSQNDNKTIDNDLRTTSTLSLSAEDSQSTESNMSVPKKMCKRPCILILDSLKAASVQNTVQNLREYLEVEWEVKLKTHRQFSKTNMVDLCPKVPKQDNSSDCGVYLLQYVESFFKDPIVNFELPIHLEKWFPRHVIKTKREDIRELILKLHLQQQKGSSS

Caspase-3 [8] = biological target: T3, Caspase-3 (Homo sapiens, UniProt P42574); test: inhibition of recombinant caspase-3 activity – biochemical, luminescence, set 2, selectivity assay for SENP protease inhibitor project, SAR follow-up (AID 588599); format: functional
T3 sequence (P42574 whole entry): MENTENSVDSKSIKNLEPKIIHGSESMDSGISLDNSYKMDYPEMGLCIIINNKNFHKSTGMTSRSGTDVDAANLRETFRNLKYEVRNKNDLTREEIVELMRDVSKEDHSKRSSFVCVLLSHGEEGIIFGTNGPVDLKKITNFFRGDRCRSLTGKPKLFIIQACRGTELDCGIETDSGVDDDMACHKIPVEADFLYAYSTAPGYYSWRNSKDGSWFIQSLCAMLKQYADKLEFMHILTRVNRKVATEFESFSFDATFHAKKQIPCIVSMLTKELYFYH

[9] = biological target: T4, Sentrin-specific protease 6 (Homo sapiens, UniProt Q9GZR1); test: inhibition of human SENP6 catalytic domain – biochemical, luminescence, set 2, SAR follow-up (AID 588598); format: functional
T4 sequence (Q9GZR1 whole entry): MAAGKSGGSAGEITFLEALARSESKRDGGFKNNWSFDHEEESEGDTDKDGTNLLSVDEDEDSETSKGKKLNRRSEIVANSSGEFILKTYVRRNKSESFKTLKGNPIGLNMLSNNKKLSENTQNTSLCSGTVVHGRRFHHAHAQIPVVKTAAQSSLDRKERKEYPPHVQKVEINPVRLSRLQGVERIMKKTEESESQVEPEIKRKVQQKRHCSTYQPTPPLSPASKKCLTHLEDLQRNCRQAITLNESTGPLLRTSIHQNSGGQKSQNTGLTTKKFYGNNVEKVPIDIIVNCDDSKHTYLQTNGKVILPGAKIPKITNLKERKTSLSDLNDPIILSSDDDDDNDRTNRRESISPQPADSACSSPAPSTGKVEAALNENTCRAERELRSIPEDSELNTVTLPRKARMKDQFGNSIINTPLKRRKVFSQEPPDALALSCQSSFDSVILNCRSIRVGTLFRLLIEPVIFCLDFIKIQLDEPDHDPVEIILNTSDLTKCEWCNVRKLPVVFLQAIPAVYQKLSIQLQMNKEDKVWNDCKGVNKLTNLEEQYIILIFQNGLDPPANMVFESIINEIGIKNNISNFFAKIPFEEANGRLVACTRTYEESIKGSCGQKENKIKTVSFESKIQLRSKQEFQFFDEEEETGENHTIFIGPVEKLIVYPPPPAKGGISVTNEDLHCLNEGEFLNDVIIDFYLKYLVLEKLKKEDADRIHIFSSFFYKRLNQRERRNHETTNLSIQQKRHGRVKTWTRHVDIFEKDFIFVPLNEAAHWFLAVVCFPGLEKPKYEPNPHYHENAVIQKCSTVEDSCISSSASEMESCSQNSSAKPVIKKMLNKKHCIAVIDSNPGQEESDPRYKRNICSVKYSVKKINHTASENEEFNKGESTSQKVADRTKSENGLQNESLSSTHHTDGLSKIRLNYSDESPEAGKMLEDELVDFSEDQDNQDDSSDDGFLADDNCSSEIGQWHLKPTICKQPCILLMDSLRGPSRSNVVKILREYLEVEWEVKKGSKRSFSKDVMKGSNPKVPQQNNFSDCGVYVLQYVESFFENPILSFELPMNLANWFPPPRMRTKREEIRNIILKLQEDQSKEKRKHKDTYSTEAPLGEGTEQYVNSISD

[10] = biological target: T5, Sentrin-specific protease 8 (Homo sapiens, UniProt Q96LD8); test: inhibition of sentrin protease 8 – biochemical, luminescence, set 2, SAR follow-up (AID 588601); format: functional
T5 sequence (Q96LD8 whole entry): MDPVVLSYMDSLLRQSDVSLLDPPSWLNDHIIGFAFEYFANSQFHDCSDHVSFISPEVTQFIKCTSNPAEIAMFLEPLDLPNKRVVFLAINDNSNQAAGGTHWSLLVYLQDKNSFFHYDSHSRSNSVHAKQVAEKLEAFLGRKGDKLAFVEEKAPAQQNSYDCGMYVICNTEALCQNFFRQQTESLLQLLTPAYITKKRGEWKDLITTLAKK

[11] = biological target: T5, Sentrin-specific protease 8; test: inhibition of human SENP8 cleavage activity – biochemical, luminescence, SAR follow-up (AID 504501); format: functional
[12] = biological target: T2, Sentrin-specific protease 7; test: inhibition of human SENP7 cleavage activity – biochemical, luminescence, SAR follow-up (AID 504497); format: functional
[13] = biological target: T4, Sentrin-specific protease 6; test: SAR Analysis of small molecule inhibitors of Sentrin-specific protease 6 (SENP6) using a Luminescent assay. [Related pubchem assays (depositor defined):AID2582, AID2599]; format: functional
Caspase-3 [14] = biological target: T3, Caspase-3; test: SAR Analysis of small molecule inhibitors of Sentrin-specific proteases (SENPs) using a Caspase-3 Selectivity assay. [Related pubchem assays (depositor defined):AID2540, AID2599, AID434973, AID489001]; format: functional

Chain of DNA dC->dU-editing enzyme APOBEC-3A (P31941 whole entry): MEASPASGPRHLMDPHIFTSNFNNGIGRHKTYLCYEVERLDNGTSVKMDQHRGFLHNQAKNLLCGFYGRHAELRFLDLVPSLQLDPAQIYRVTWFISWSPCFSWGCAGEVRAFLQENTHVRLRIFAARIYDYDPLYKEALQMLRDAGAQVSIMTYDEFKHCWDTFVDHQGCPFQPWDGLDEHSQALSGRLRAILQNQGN
Chain of DNA dC->dU-editing enzyme APOBEC-3G (Q9HC16 whole entry): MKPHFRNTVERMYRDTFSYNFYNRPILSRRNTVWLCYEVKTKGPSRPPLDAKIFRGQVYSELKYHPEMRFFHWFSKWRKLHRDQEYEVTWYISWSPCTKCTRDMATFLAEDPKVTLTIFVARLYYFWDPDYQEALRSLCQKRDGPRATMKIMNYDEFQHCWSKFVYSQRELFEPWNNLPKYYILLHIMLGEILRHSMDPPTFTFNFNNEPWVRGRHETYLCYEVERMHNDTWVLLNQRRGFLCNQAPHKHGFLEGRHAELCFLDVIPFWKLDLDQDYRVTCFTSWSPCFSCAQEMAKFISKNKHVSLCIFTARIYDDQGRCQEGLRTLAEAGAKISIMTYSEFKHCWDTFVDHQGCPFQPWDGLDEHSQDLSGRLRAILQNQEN
Chain of Cytochrome P450 2C9 (P11712 whole entry): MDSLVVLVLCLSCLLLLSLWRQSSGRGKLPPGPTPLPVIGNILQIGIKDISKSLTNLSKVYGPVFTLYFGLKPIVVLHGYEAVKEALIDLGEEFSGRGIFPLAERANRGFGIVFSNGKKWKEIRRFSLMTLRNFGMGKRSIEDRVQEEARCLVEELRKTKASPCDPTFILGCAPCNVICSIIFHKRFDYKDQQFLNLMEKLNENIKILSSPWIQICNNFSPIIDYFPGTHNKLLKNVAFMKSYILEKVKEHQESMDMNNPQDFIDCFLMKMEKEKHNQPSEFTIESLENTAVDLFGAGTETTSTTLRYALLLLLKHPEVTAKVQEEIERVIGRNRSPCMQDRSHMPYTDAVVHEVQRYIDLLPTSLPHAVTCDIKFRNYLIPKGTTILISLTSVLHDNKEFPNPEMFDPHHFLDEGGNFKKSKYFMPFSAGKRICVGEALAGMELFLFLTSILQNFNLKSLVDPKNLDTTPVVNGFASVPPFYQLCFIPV
Chain of Cytochrome P450 2D6 (P10635 whole entry): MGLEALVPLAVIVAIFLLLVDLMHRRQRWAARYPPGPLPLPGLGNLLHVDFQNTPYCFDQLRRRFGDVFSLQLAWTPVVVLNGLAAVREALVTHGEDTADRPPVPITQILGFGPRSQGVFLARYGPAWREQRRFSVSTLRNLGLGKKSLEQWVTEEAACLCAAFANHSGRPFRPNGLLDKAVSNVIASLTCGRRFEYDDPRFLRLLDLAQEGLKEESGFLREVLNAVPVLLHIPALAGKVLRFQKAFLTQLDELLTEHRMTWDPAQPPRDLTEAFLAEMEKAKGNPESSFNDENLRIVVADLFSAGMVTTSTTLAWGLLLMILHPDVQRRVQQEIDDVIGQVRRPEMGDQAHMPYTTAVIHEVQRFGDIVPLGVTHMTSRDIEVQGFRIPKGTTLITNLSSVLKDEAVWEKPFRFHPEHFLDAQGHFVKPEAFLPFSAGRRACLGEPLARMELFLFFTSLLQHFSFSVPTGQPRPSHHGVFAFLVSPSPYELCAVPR
Chain of Cytochrome P450 2C19 (P33261 whole entry): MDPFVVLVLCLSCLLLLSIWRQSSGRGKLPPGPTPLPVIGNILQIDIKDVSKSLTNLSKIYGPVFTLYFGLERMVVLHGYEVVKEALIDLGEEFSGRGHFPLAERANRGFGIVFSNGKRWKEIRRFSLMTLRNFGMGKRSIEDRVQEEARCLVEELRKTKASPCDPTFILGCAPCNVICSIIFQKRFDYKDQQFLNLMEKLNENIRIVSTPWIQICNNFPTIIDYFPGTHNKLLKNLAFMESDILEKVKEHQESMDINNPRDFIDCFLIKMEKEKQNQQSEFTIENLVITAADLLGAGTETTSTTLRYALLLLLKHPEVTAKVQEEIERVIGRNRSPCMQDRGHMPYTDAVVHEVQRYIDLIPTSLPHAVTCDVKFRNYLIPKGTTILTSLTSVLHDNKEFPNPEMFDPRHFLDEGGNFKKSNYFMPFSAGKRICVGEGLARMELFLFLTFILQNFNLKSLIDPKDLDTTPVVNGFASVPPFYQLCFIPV

IC50 [7] | IC50 (Caspase-3 [8]) | IC50 [9] | SMILES | IC50 [1] | IC50 [2] | EC50 (Insulin-degrading enzyme [3]) | EC50 (Insulin-degrading enzyme [4]) | EC50 (HEK293 [5]) | IC50 (HEK293 [6]) | IC50 [10] | other results
– | – | – | C=CCSc1nnc(-c2cc3c(C(F)(F)F)nn(C)c3s2)n1C | > 99 µM (inactive) | 70.8 µM (inactive) | – | – | – | – | – | AC50 (Cytochrome P450 2C19): 3.55 µM (inconclusive); AC50 (Cytochrome P450 2D6): 17.8 µM (inconclusive); AC50 (Cytochrome P450 2C9): inconclusive
– | – | – | Cc1cc(C(=O)Cn2ccccc2=O)c(C)n1Cc1ccccc1 | > 99 µM (inactive) | > 99 µM (inactive) | – | – | – | – | – | –
– | – | – | O=C(Nc1ccc(-c2nc3ccccc3o2)cc1)c1ccc2c(c1)OCO2 | – | – | > 54.7 µM (inactive) | > 54.7 µM (inactive) | > 55.9 µM (inactive) | > 9.91 µM (active) | – | –
> 99 µM (inactive) | > 99 µM (inactive) | > 99 µM (inactive) | CCN1CCN(CCCNC(=O)C(=O)c2c[nH]c3ccccc23)CC1 | – | – | – | – | – | – | > 99 µM (inactive) | –
– | – | – | C1CCCCCC(=NNc2nn[nH]n2)CCCCC1 | – | – | > 54.7 µM (inactive) | > 54.7 µM (inactive) | > 56 µM (inactive) | > 89.2 µM (inactive) | – | –
0.558 µM (active) | 0.465 µM (active) | 0.652 µM (active) | Cn1cccc1C(=O)Nc1nc2ccc(Cl)cc2s1 | – | – | – | – | – | – | 0.619 µM (active) | IC50 [11]: 0.52 µM (active); IC50 [12]: 0.49 µM (active); IC50 [13]: 0.54 µM (active); IC50 (Caspase-3 [14]): 0.42 µM (active)
